# Measured values: patent US20240408053A1, “ENTERITIS-SUPPRESSING COMPOSITION” (KOBE GAKUIN EDUCATIONAL FOUNDATION, priority 2021, published 2024)
# Marks after values point to notes of the source that are not given here.
# How the values were obtained:
# [1] = system: ethanol-induced lesion in mouse colon; assay: Microscopic evaluation of ethanol-induced lesion in mouse colon (HE, TB, MUC2 staining), 2 weeks; assay type: in vivo, mice
# fecal mucin = assay: Amount of fecal mucin of mice; assay type: in vivo; conditions: group ES: 2.0% v/v ethanol diet + 2.5 mg sesaminol per day oral, 4 weeks, vs group E; level similar to group C
# Excerpt: The effect of oral administration of sesaminol on the amount of mucus secretion in mouse colon was examined by measuring the amount of fecal mucin of the mice in each group (groups C, E, S, and ES) and the amount of secretory immunoglobulin A (sIgA) in the colon tissue of the mice.
# Fecal samples were each freeze-dried overnight in a freeze-drying equipment and then formed into a powder. After weighing each of the dried, powdered feces, fecal mucin was quantified according to the product protocol of a reagent kit for measuring fecal mucin (Fecal Mucin Assay Kit, produced by Cosmo Bio Co., Ltd.), and converted to the mucin amount (ug) per amount of dry feces (g). The results were evaluated.
# ZO-1 = assay: Western blotting of ZO-1 in colon tissue; assay type: in vivo, mice; conditions: group ES: 2.0% v/v ethanol diet + 2.5 mg sesaminol per day oral, 2 weeks, vs group E; lower than group C
# Excerpt: Acetaldehyde, which accumulates during ethanol metabolism, is known to disrupt intestinal tight junctions (TJs) via dissociation of colonic epithelium TJ proteins (ZO-1, occludin, and claudin-1) from the cytoskeleton. […] Therefore, whether oral administration of sesaminol would affect ethanol-induced intestinal barrier dysfunction was examined by analyzing the expression levels of colonic epithelial TJ proteins and the plasma LPS level in the mice in the four groups (groups C, S, E, and ES).
# WB was performed in the same manner as in Example 4 above. The following primary antibodies were used. • Anti-mouse zonula occludens-1 protein (ZO-1) rabbit polyclonal antibody • Anti-mouse occludin rabbit polyclonal antibody • Anti-mouse claudin-1 rabbit polyclonal antibody
# TNF-α = TNF-α expression in colon tissue (qRT-PCR, ELISA); assay type: in vivo, mice; conditions: group ES: 2.0% v/v ethanol diet + 2.5 mg sesaminol per day oral, 2 weeks, vs group E; higher than group C
# Excerpt: It has been reported that chronic consumption of an excessive amount of ethanol can induce inflammation associated with tumor formation in colon tissue. Therefore, in order to verify whether oral administration of sesaminol has a preventive effect on ethanol-induced colitis, the expression levels of inflammatory cytokines (TNF-α and IL-6) and chemokine (MCP-1) in the large intestinal lamina propria of the mice in the four groups (groups C, S, E, and ES) were examined by qRT-PCR and ELISA. The NF-κB activity in the mice in the four groups was also examined. NF-κB is a transcription factor that is involved in expression of genes regulating inflammation and is activated by exposure of immune cells to pro-inflammatory factors.
# Total RNA was extracted from colon tissue samples. […]
# A colon tissue sample (100 mg) was homogenized in 1 mL of an M-PER mammalian protein extraction reagent (Pierce) containing a diluent of a protease inhibitor cocktail (Nacalai Tesque, Inc.), and the resulting homogenate was centrifuged at 20,000× g at 4° C. for 15 minutes. The protein concentration of the supernatant was measured with a protein assay reagent (Bio-Rad Laboratories, Inc.), and equal amounts of proteins were used for analysis of the expression levels of TNF-α, IL-6, and MCP-1 by ELISA.
# [2] = Amount of short-chain fatty acids in mouse feces (GC-FID); assay type: in vivo, mice; conditions: 4 weeks
# Description: Short-chain fatty acids are metabolites of intestinal bacteria. The amounts of short-chain fatty acids (acetic acid, propionic acid, and butyric acid) in feces of the mice in each group (groups C, E, S, and ES) were measured.
# The amounts of short-chain fatty acids in the mouse feces were measured by outsourcing to TechnoSuruga Laboratory Co., Ltd.
# Immediately after collection, mouse feces was treated with liquid nitrogen and stored at −80° C. While the fecal samples were frozen, an amount of 100 mg was crushed with beads and formed into a powder, and components extracted with ethyl acetate treatment were used as detection samples. For the measurement, a gas-chromatography-flame ionization detector system (Agilent 7890B GC, produced by Agilent technologies) was used, and the concentration of each short-chain fatty acid was calculated by comparison with the amount of standard substance.
# [3] = AST and ALT activities and TG concentration in the plasma, 4 weeks; assay type: in vivo, mice; conditions: mean ±SD
# Description: The liver function and plasma lipid level in the mice in each group were examined by measuring the percentage of the liver weight relative to the body weight, the triglyceride (TG) concentration in the liver, the aspartate aminotransferase (AST) activity in the plasma, the alanine aminotransferase (ALT) activity in the plasma, and the TG concentration in the plasma of the mice in each group.
# The AST and ALT activities and TG concentration in the plasma were measured according to the product protocol using dedicated reagent kits for each test item (L-Type Wako AST, L-Type Wako ALT, and L-Type Wako TG M, produced by FUJIFILM Wako Pure Chemical Corporation).
# [4] = group ES: 2.0% v/v ethanol diet + 2.5 mg sesaminol per day oral, vs group E
# [5] = group ES: 2.0% v/v ethanol diet + 2.5 mg sesaminol per day oral
# [6] = EtOH (2.0% v/v) + Sesaminol group ES
structure (smiles),measurement,setting,value
Oc1cc2c(cc1C1OCC3C(c4ccc5c(c4)OCO5)OCC13)OCO2 (stereo not shown) [Sesaminol],degree of lesion in colonic epithelium,[1]; [4],smaller degree of lesion compared with that observed in group E
same,microscopic lesion score of colon tissue,[1]; [4],significantly lower than that of group E
same,lesions in colonic epithelium,"[1]; group S: 2.5 mg sesaminol per day oral, no ethanol",No obvious lesions
same,amount of fecal mucin,fecal mucin,significantly higher than that in group E
same,expression level of ZO-1,ZO-1,significantly higher than those in group E
same,"expression level of TNF-α (mRNA by qRT-PCR, protein by ELISA)",TNF-α,significantly lower than those in group E
same,acetic acid in the feces,[2]; [5],significant increase
same,propionic acid in the feces,[2]; [5],significant increase
same,amount of butyric acid in the feces,"[2]; group ES: 2.0% v/v ethanol diet + 2.5 mg sesaminol per day oral, group E significant decrease",increase in the amount of butyric acid to the same level as that in group C
same,"amount of short-chain fatty acids (acetic acid, propionic acid, butyric acid) in the feces","[2]; group S: 2.5 mg sesaminol per day oral, no ethanol, vs all other groups",significant increase in the amount of short-chain fatty acids in the feces compared with all the other groups
same,Plasma ALT,[3]; [6],"45.8 ± 6.6*^, †, ### U/L"
same,Plasma AST,[3]; [6],43.5 ± 7.6 U/L
same,Plasma TG,[3]; [6],0.65 ± 0.13 mmol/L
same,Plasma ALT,[3]; Sesaminol (2.5 mg/d) group S,33.3 ± 5.7 U/L
same,Plasma AST,[3]; Sesaminol (2.5 mg/d) group S,41.3 ± 6.8 U/L
same,Plasma TG,[3]; Sesaminol (2.5 mg/d) group S,0.53 ± 0.14 mmol/L
